The results in this text go back to US8486916B2, “Medicine, food and drink or feed containing sphingomyelin” (Megmilk Snow Brand Co., Ltd., priority 2005, dated 2013).

Series [1] concerns β-Lg. The series is described as follows: Test on effect of blocking allergen invasion (β-Lg and anti-β-Lg IgE in blood). The format is in vivo, Infant Wistar rats. As to conditions: for Anti-β-Lg IgE: blood 2 weeks after β-Lg; for β-Lg: blood 1 hour after β-Lg. As for the experimental part:
Infant Wistar rats (14 day old, body weight: around 20 g, 8 individuals, Charles River Laboratories, Japan) were divided into a control group and sphingomyelin administration groups (SPM administration groups), and all the groups were raised using artificial milk having composition closely analogous to that of rat milk. […] On the 21st day, 100 μl of a β-Lg solution (10 mg/ml) was orally administered thereto. Blood collected from the rats after 1 hour and after 2 weeks. On the other hand, a β-Lg solution and a complete Freund adjuvant were mixed for emulsification, and the emulsion was hypodermically injected to 3 locations (both sides of the back, and the hip) of a 3-month-old rabbit (Japanese white, male, manufactured by KITAYAMA LABES Co., Ltd.) to obtain anti-β-Lg serum. A β-Lg amount in the above-described blood after 1 hour was measured by a sandwich ELISA method using this antiserum as a primary antibody and a horseradish peroxidase (PO)-labeled secondary antibody. Moreover, anti-β-Lg IgE in the above-described blood after 2 weeks was measured by an ELISA method using β-Lg and a PO-labeled anti-rat IgE antibody (manufactured by Nordic).

Series [2] deals with Chinese hamster lung fibroblast cell line V79. It counts as cell-based. As for the experimental part: The antioxidative activity of sphingomyelin was measured according to the method of Nakayama et al. (Mutation Research, vol. 281, pp. 77-80, 1992). […] Then, the antioxidative activity of sphingomyelin was determined using reduction in colony forming activity attributed to hydrogen peroxide as an index for toxicity and assessed based on the extent to which the colony forming activity recovered from such reduction by adding sphingomyelin to the cultured cells for test. The cultured cells for test were inoculated onto a plate and precultured (cell adhesion) for 2 hours. […] The cultured cells for test were incubated for 4 hours so that the cells were allowed to take up sphingomyelin, prior to hydrogen peroxide. Next, the cells were reacted for 30 minutes by the addition of hydrogen peroxide and damaged. After reaction, the cells were cultured for 5 days in a medium containing serum. In this context, the concentration of hydrogen peroxide was set to 60 μM at which colony forming activity was decreased to a few % to approximately 40%. […] In this context, higher cell viability indicates the higher antioxidative activity of the added sphingomyelin.

Turning to sphingomyelin, the “Anti-β-Lg IgE” value in series [1] (0.05 mg/kg/day oral) came out at 498.2 ± 156.8 ng/mL; in series [1] (0.1 mg/kg/day oral), 190.6 ± 77.8 ng/mL; in series [1] (5.0 mg/kg/day oral), 165.4 ± 65.9 ng/mL. Also, the β-Lg in series [1] (0.05 mg/kg/day oral) stood at 38.6 ± 14.7 ng/mL; in series [1] (0.1 mg/kg/day oral), 13.4 ± 6.6 ng/mL; in series [1] (5.0 mg/kg/day oral) it was 5.6 ± 3.8 ng/mL. Moreover, in series [2], the “own toxicity (colony forming activity)” value is “no reduction in colony forming activity”.
